Test [1] concerns U87MG glioblastoma tumors. Briefly: U87MG glioblastoma tumor xenograft model (tumor growth inhibition). It is filed as in vivo, athymic nude mice. The conditions noted are these: for decrease of mean tumor volume compared to vehicle-treated group: Day 21, p<0.001. The method, then: The U87MG glioblsatoma cell line (Piedmont Research Center LLC) expresses the c-Met receptor and responds to Human Growth Factor (HGF). This study investigated whether treatment with an inhibitor of c-Met is efficacious against the U87MG glioblastoma tumor xenograft model. This study utilized a tumor growth inhibition (TGI) assay to test per os (p.o.) compound monotherapy in groups of fifteen nude mice. A control group was treated with vehicle, 20% Hydroxypropyl Beta-Cyclodextrin (HPBCD). All treatments began on Day 1 (D1) in mice bearing established subcutaneous (s.c.) U87MG tumors.
Female athymic nude mice (Harlan) were 10-11 weeks old with a BW range of 18.1-25.0 g on D1 of the study. The animals were fed ad libitum water (reverse osmosis, 1 ppm Cl) and NIH 31 Modified and Irradiated Lab Diet® consisting of 18.0% crude protein, 5.0% crude fat, and 5.0% crude fiber. The mice were housed on irradiated ALPHA-dri® Bed-o-cobs® Laboratory Animal Bedding in static microisolators on a 12-hour light cycle at 21-22° C. (70-72° F.) and 40-60% humidity. All animals were housed in a Laboratory Animal Medicine facility that is fully accredited by the American Association for Assessment and Accreditation of Laboratory Animal Care (AAALAC). All procedures involving animals were conducted in compliance with the NIH Guide for the Care and Use of Laboratory Animals and all protocols were approved by an Internal Animal Care and Use Committee (IACUC).
Xenografts were initiated from U87MG human glioblastoma tumor fragments maintained by serial transplantation in athymic nude mice. Each test mouse received a subcutaneous U87MG tumor fragment (1 mm^3) implanted in the right flank, and the growth of tumors was monitored as the average size approached 200 mm^3. Twelve days later, on Day 1 of the study, the animals were sorted into 4 groups (n=12-15 mice/group) with individual tumor volumes ranging from 172-352 mm^3 and group mean tumor volumes of 216 mm^3. Tumor volume was calculated using the formula:
[formula] where w=width and l=length in mm of the tumor. Tumor weight may be estimated with the assumption that 1 mg is equivalent to 1 mm^3 of tumor volume. Drug Treatment
Dosing solutions of compounds of the present invention were prepared fresh weekly in a vehicle consisting of 20% Hydroxypropyl Beta-Cyclodextrin (HPBCD) in water. In all groups, the dosing volume of 0.2 mL/20-g mouse was scaled to the body weight of each animal. Doses were given to allow for the HCl salt form of the compound.
TGI was calculated from the difference between the median tumor volumes of vehicle-treated and drug-treated mice, expressed as a percentage of the median tumor volume of the vehicle-treated control group, by the following relation:
The MTV (n) is defined as the median tumor volume (MTV) for the number of animals, n, remaining in the study on that day.
Animals were weighed daily for the first five days of the study and then twice weekly. The mice were examined frequently for overt signs of any adverse, drug-related side effects, and clinical signs of toxicity were recorded when observed. Acceptable toxicity is defined as a group mean body-weight (BW) loss of less than 20% during the study, and not more than one treatment-related (TR) death among ten animals. A death is classified as TR if it is attributable to treatment side effects as evidenced by clinical signs and/or necropsy, or due to unknown causes during the dosing period or within 10 days of the last dose. A death is classified as non treatment-related (NTR) if there is no evidence that the death was related to drug side effects. A death is classified as non treatment-related unknown (NTRu) if the cause of death is unknown.
The Mann-Whitney U-test, for analysis of medians, was used to determine the statistical significance of the difference between the MTVs. Prism 3.03 (GraphPad) for Windows was used for the statistical analyses and graphic presentations. […]

In test [2] the target is T1, c-Met (Homo sapiens, UniProt P08581). Put plainly: Delfia autophosphorylation kinase assay on the c-Met. Format: biochemical. Also noted: The purified His6 tagged cytoplasmic domain of c-Met was diluted to a concentration of 500 ng/ml; host or cells: Sf9 insect cells (baculovirus, pFastBacHTa). The note with it: His6 tagged cytoplasmic domain of c-Met, 1 μM ATP; read-out: cMet Delfia autophos IC-50. A digest of the protocol: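 Time-resolved fluorescence tracked autophosphorylation of the His6-tagged c-Met cytoplasmic domain, dispensed at 500 ng/ml onto nickel-chelate plates. Reaction buffer held 1 μM ATP, 10 mM MgCl2, vanadate and DTT at pH 8.0, for 1 h at room temperature.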
Target sequence in this assay (P08581 956-1390 limits assumed): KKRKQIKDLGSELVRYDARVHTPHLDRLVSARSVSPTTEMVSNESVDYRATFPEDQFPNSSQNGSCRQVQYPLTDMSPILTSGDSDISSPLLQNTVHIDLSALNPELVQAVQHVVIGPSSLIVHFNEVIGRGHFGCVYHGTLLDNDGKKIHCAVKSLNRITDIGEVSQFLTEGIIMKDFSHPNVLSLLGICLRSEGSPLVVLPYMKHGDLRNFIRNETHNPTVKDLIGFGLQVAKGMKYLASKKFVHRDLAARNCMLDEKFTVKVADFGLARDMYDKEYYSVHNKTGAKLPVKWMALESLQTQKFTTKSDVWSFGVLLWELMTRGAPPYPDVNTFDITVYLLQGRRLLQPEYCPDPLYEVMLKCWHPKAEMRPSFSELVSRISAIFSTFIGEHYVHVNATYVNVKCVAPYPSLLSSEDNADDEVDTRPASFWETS

The target of test [3] is T1, c-Met. Briefly: Cell based ELISA assay for HGF stimulated c-Met phosphorylation in S114 cells. Details: expressed in transfected cells; host or cells: S114 (murine NIH 3T3 derived). The note with it: read-out: c-Met Cell ELISA IC-50. The method, then: A cell based ELISA assay was developed to evaluate the ability of compounds to inhibit HGF stimulated c-Met phosphorylation in cells.
S114 cells were seeded to a 96 well tissue culture treated dish at a concentration of 5×10^4 per well. After a 16-20 hour incubation, culture medium was removed and replaced with serum free medium supplemented with 0.5% BSA. Test compound was then added and incubated with the cells for 60 minutes, followed by the addition of 1 μl HGF at […] for 15 minutes. […] Following another 1 hour incubation at room temperature the plates were washed three times with Delfia wash buffer (Perkin Elmer). After the final wash, […] of Delfia enhancer solution (Perkin Elmer) was added and allowed to incubate for 60 minutes. Plates were read on an LJL Analyst instrument (Molecular Devices; Sunnyvale, Calif.) with filter settings of 360 excitation, 620 emission, and 410 dichroic. IC50 values were calculated using Graphpad Prism software (Graphpad Software; San Diego, Calif.).
Target sequence in this assay (P08581 25-1390): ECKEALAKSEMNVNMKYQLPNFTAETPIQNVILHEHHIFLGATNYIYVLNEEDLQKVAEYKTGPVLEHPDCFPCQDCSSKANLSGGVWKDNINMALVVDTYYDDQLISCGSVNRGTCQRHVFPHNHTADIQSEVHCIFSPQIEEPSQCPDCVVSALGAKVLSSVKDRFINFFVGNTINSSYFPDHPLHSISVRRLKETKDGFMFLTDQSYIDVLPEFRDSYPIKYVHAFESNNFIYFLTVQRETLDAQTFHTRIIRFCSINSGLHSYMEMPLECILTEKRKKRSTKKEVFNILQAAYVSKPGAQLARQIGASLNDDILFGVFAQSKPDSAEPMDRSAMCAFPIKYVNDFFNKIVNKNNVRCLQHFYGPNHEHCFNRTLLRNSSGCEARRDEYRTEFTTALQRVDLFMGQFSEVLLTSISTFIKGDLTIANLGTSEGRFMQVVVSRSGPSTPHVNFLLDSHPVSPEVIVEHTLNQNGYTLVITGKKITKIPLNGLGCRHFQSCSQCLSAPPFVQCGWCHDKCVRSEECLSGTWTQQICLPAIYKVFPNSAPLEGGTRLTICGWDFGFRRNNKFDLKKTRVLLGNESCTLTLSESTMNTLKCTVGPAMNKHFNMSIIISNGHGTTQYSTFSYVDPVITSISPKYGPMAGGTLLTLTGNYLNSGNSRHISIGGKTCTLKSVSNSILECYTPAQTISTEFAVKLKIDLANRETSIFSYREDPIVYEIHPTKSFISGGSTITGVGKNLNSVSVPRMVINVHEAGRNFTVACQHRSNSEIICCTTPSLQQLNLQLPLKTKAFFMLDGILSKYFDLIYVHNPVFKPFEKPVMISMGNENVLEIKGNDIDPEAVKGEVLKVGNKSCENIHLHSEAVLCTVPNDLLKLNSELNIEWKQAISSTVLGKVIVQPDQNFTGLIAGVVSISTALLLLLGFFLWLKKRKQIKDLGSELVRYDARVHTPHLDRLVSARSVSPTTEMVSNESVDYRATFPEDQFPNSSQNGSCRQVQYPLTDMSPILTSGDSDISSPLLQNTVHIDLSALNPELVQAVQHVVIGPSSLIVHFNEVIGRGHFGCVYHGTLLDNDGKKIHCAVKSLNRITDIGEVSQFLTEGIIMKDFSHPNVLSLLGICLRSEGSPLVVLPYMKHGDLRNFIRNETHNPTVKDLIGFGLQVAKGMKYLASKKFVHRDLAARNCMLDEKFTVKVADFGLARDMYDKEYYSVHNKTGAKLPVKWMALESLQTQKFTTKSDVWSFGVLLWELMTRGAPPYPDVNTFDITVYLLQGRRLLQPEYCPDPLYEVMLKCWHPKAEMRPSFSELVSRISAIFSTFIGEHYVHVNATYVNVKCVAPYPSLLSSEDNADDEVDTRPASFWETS
(An ELISA detects its analyte on a solid surface through an enzyme-linked reagent.)

These results are taken from US8173654B2, “Triazolopyridazine compounds” (Janssen Pharmaceutica N.V., priority 2005, dated 2012).

With `Cn1cc(-c2ccc3nnc(Cc4ccc5ncccc5c4)n3n2)cn1` [Example 1, 6-[6-(1-Methyl-1H-pyrazol-4-yl)-[1,2,4]triazolo[4,3-b]pyridazin-3-ylmethyl]-quinoline], the “decrease of mean tumor volume compared to vehicle-treated group” value in test [1] (30 mg/kg p.o. b.i.d., 21 consecutive days) worked out at 66%; in test [1] (50 mg/kg p.o. b.i.d., 21 consecutive days) it was 97%. The tumor regression entry in test [1] (50 mg/kg p.o. b.i.d., 21 days) is given as “Tumor regression was observed”. In addition, the “inhibition of growth of U87MG tumors” value in test [1] (30 and 50 mg/kg p.o. b.i.d., 21 consecutive days) is on record as “statistically significant, dose-dependent inhibition of growth”.

For the molecule `Cn1ccc2cc(-c3ccc4nnc(Cc5ccc6ncccc6c5)n4n3)ccc21` [Example 85, 6-[6-(1-Methyl-1H-indol-5-yl)-[1,2,4]triazolo[4,3-b]pyridazin-3-ylmethyl]-quinoline], the IC50 on c-Met [2] was found to be 53 nM; on c-Met [3], 260 nM.

Consider `Cc1cc(-c2ccc3nnc(Cc4ccc5ncccc5c4)n3n2)ccn1` [Example 87, 6-[6-(2-Methyl-pyridin-4-yl)-[1,2,4]triazolo[4,3-b]pyridazin-3-ylmethyl]-quinoline], for which the IC50 on c-Met [2] amounted to 0.6 nM; at c-Met [3], 4 nM.

As for `Nc1ccc(-c2ccc3nnc(Cc4ccc5ncccc5c4)n3n2)cn1` [Example 88, 5-(3-Quinolin-6-ylmethyl-[1,2,4]triazolo[4,3-b]pyridazin-6-yl)-pyridin-2-ylamine], the IC50 on c-Met [2] is 2 nM; on c-Met [3] it was 50 nM.

For `COc1ccc(-c2ccc3nnc(Cc4ccc5ncccc5c4)n3n2)cn1` [Example 89, 6-[6-(6-Methoxy-pyridin-3-yl)-[1,2,4]triazolo[4,3-b]pyridazin-3-ylmethyl]-quinoline], the results for the IC50 at c-Met [2] and at c-Met [3] were 4 nM and 230 nM, respectively.

On to `O=c1ccc(-c2ccc3nnc(Cc4ccc5ncccc5c4)n3n2)c[nH]1` [Example 90, 5-(3-Quinolin-6-ylmethyl-[1,2,4]triazolo[4,3-b]pyridazin-6-yl)-1H-pyridin-2-one], for which the IC50 stood at 3 nM on c-Met [2] and 540 nM at c-Met [3].

Turning to `Cc1nc2ccc(Cc3nnc4ccc(-c5cccnc5)nn34)cc2s1` [Example 92, 3-(2-Methyl-benzothiazol-6-ylmethyl)-6-pyridin-3-yl-[1,2,4]triazolo[4,3-b]pyridazine], the figures for the IC50 on c-Met [2] and at c-Met [3] were 4 nM and 10 nM, respectively.

In the case of `Cn1cc(-c2ccc3nnc(Cc4ccc5nc(N)sc5c4)n3n2)cn1` [Example 93, 6-[6-(1-Methyl-1H-pyrazol-4-yl)-[1,2,4]triazolo[4,3-b]pyridazin-3-ylmethyl]-benzothiazol-2-ylamine], the IC50 at c-Met [2] was 4 nM; on c-Met [3] it was 130 nM.

On to `CN(C)c1nc2ccc(Cc3nnc4ccc(-c5cnn(C)c5)nn34)cc2s1` [Example 94, Dimethyl-{6-[6-(1-methyl-1H-pyrazol-4-yl)-[1,2,4]triazolo[4,3-b]pyridazin-3-ylmethyl]-benzothiazol-2-yl}-amine], for which the IC50 on c-Met [2] was determined as 30 nM; on c-Met [3], 640 nM.

Turning to `Clc1cc(-c2ccc3nnc(Cc4ccc5ncccc5c4)n3n2)ccn1` [Example 95, 6-[6-(2-Chloro-pyridin-4-yl)-[1,2,4]triazolo[4,3-b]pyridazin-3-ylmethyl]-quinoline], the values for the IC50 on c-Met [2] and on c-Met [3] were 1 nM and 9 nM, respectively.

In the case of `N#Cc1ccc(-c2ccc3nnc(Cc4ccc5ncccc5c4)n3n2)cn1` [Example 96, 5-(3-Quinolin-6-ylmethyl-[1,2,4]triazolo[4,3-b]pyridazin-6-yl)-pyridine-2-carbonitrile], the IC50 at c-Met [2] stood at 12 nM; on c-Met [3], 160 nM.

In the case of `C#Cc1cc(-c2ccc3nnc(C(F)(F)c4ccc5ncccc5c4)n3n2)ccn1` [Example 100, 6-{[6-(2-Ethynyl-pyridin-4-yl)-[1,2,4]triazolo[4,3-b]pyridazin-3-yl]-difluoro-methyl}-quinoline], the IC50 came out at 5 nM on c-Met [2] and 140 nM on c-Met [3].

Regarding `FC(F)(c1ccc2ncccc2c1)c1nnc2ccc(-c3ccnc(Cl)c3)nn12` [Example 100b, 6-{[6-(2-Chloro-pyridin-4-yl)-[1,2,4]triazolo[4,3-b]pyridazin-3-yl]-difluoro-methyl}-quinoline], the results for the IC50 at c-Met [2] and on c-Met [3] were 2 nM and 34 nM, respectively.

For `N#Cc1cc(-c2ccc3nnc(C(F)(F)c4ccc5ncccc5c4)n3n2)ccn1` [Example 101, 4-[3-(Difluoro-quinolin-6-yl-methyl)-[1,2,4]triazolo[4,3-b]pyridazin-6-yl]-pyridine-2-carbonitrile], the IC50 at c-Met [2] worked out at 1 nM; at c-Met [3] it was 120 nM.

As to `CN1CCN(C(=O)c2ccc(-c3ccc4nnc(C(F)(F)c5ccc6occc6c5)n4n3)s2)CC1` [Example 102, {5-[3-(Benzofuran-5-yl-difluoro-methyl)-[1,2,4]triazolo[4,3-b]pyridazin-6-yl]-thiophen-2-yl}-(4-methyl-piperazin-1-yl)-methanone], the IC50 worked out at 3 nM at c-Met [2] and 79 nM at c-Met [3].

As to `CN1CCN(C(=O)c2ccc(-c3ccc4nnc(C(F)(F)c5ccc6c(c5)CCO6)n4n3)s2)CC1` [Example 103, (5-{3-[(2,3-Dihydro-benzofuran-5-yl)-difluoro-methyl]-[1,2,4]triazolo[4,3-b]pyridazin-6-yl}-thiophen-2-yl)-(4-methyl-piperazin-1-yl)-methanone], the values for the IC50 on c-Met [2] and at c-Met [3] were 4 nM and 210 nM, respectively.
